Test results reported in patent US11304944B2, “MetAP2 inhibitors and methods of treating obesity” (SynDevRx, Inc., priority 2013, dated 2022).
Where “and” joins values, the source holds several entries; their conditions need not be identical. Equal values may be shown once. Read-outs that look alike come from different tables or passages of the source.

Key:
DIO C57Bl6 mice = settings: for Blood Glucose 120 / Blood Glucose 15 min / Blood Glucose 30 min / Blood Glucose 60 min / Blood Glucose 90 min / Blood Glucose Fasting: IP-GTT day 24, ± SEM; for CHOLESTEROL / HDL CHOLESTEROL / HDL/LDL ratio / LDL / TRIGLYCERIDE: blood day 32, ± SEM; for Epid. Fat / Fat % BW / Ing. Fat / Liver / RP Fat / Total Fat / avg B.W.: day 32; for Blood glucose: day 32, fasted three hours
Description: C57Bl6 male mice (N=6) fifteen weeks old with an average of weight of 42 g were ad libitum fed TD.06414 a high fat diet composed of 60% Kcal from fat (Harlan diet). […] Animals were weighed every other day. Food consumption was measured weekly. […] Each animal was weighed and a baseline fasted glucose measurement collected. Each animal was given a 1 gram per kilogram dose of dextrose as a 25% solution by intraperitoneal injection.

Sprague Dawley male rats = experiment: Tolerability of high IV doses on q7d schedule in Sprague Dawley rats; type: in vivo; settings: 100 mg/kg or 200 mg/kg IV on days 1, 8, 15, 22 and 29
Description: Sprague Dawley male rats (N=3) nine to ten weeks old with an average weight of 300 g were ad libitum fed standard rodent diet (PharmaServ lab diet 5001). […] The rats were weighed periodically and bled on day 10, day 17, day 24. For in-life blood collections, the rats were anesthetized with an inhalation mixture of 4% Isoflurane and 1.5% oxygen, then blood was collected via retro-orbital plexus puncture at a volume of at least 1 mL. […] Within the limits of comparison to normal ranges and pre-dose data, clinical findings for albumin, albumin/globulin ratio, alkaline, phosphatase, ALT (SGPT), AST (SGOT), bicarbonate, direct bilirubin, indirect bilirubin, total bilirubin, BUN, BUN/creatinine ratio, calcium, chloride, cholesterol, CK, creatinine, globulin, glucose, phosphorus, potassium, sodium, sodium/potassium ratio, total protein were unremarkable.

DIO C57Bl/6 mice = experiment: In vivo testing DIO mice schedule-dose response: weight, food intake, ipGTT, HOMA-ir data
Description: Animals were dosed according to the schedule in Table 17 below.
Compound dosing occurred between 9 and 10 am on the day of dosing. Groups 6 and 7 received a total of 17 doses. The q4d groups (1, 2, 3, 4, 8, 9) received a total of 9 doses. The q8d group (5) received a total of 5 drug doses. Body weight and food intake were measured every other day. Blood glucose was measured on Day −7, Day 0, Day 7, Day 14, Day 21 and Day 28 at 9:00 am in fed state (BG measured before dose on dosing days). BG was measured by glucometer. An intraperitoneal glucose tolerance test (ipGTT, 6 h fasting) was performed.
The study was terminated on day 34. Liver and epididymal white adipose tissues (eWAT) were harvested, weighed and stored at −80° C. Sera was collected to determine: AST, ALT, ALP, CK, BUN, creatinine, calcium, potassium, sodium, chloride, total protein, albumin, total bilirubin, glucose, triglyceride and cholesterol. Insulin samples were measured using a commercial kit.

What does the source list for “poly[HPMA-co-MA-GFLG-N-(trans-4-aminocyclohexyl)carbamoylfumagillol] [Compound 16]”?
Blood Glucose 120 (DIO C57Bl6 mice; 2.0 mg/kg q4d sc): 166 ± 6.4 mg/dL; Blood Glucose 15 min (DIO C57Bl6 mice; 2.0 mg/kg q4d sc): 388 ± 20.7 mg/dL; Blood Glucose 30 min (DIO C57Bl6 mice; 2.0 mg/kg q4d sc): 361 ± 24.3 mg/dL; Blood Glucose 60 min (DIO C57Bl6 mice; 2.0 mg/kg q4d sc): 327 ± 26.7 mg/dL; Blood Glucose 90 min (DIO C57Bl6 mice; 2.0 mg/kg q4d sc): 244 ± 24.0 mg/dL; Blood Glucose Fasting (DIO C57Bl6 mice; 2.0 mg/kg q4d sc): 198 ± 11.6 mg/dL; CHOLESTEROL (DIO C57Bl6 mice; 2 mg/kg q4d sc): 149 ± 4.7 mg/dL; HDL CHOLESTEROL (DIO C57Bl6 mice; 2 mg/kg q4d sc): 92 ± 2.6 mg/dL; HDL/LDL ratio (DIO C57Bl6 mice; 2 mg/kg q4d sc): 9.0 ± 0.4; LDL (DIO C57Bl6 mice; 2 mg/kg q4d sc): 10 ± 0.5 mg/dL; TRIGLYCERIDE (DIO C57Bl6 mice; 2 mg/kg q4d sc): 95 ± 8.7 mg/dL; Epid. Fat (DIO C57Bl6 mice; 2.0 mg/kg q4d sc): 1.72 g; Fat % BW (DIO C57Bl6 mice; 2.0 mg/kg q4d sc): 11% and 11.4%; Ing. Fat (DIO C57Bl6 mice; 2.0 mg/kg q4d sc): 1.81 g; Liver (DIO C57Bl6 mice; 2.0 mg/kg q4d sc): 1.44 g; RP Fat (DIO C57Bl6 mice; 2.0 mg/kg q4d sc): 0.89 g; Total Fat (DIO C57Bl6 mice; 2.0 mg/kg q4d sc): 4.42 g; avg B.W. (DIO C57Bl6 mice; 2.0 mg/kg q4d sc): 38.82 g; Blood glucose (DIO C57Bl6 mice; 2.0 mg/kg q4d sc): 259 mg/dL; weekly food consumption, % of vehicle (DIO C57Bl6 mice; 6 mg/kg q4d, day 9-29): 75%; Weekly food consumption Day 1-8 (DIO C57Bl6 mice; 6 mg/kg q4d sc): 9.0 g; Weekly food consumption Day 9-15 (DIO C57Bl6 mice; 6 mg/kg q4d sc): 17.5 g; Weekly food consumption Day 15-22 (DIO C57Bl6 mice; 6 mg/kg q4d sc): 17.8 g; Weekly food consumption Day 22-29 (DIO C57Bl6 mice; 6 mg/kg q4d sc): 16.1 g; Group BW ± SEM, Day 32 (DIO C57Bl6 mice; 6.0 mg/kg q4d sc): 33.6 ± 0.72 g; Weight Change from day 1 (DIO C57Bl6 mice; 6.0 mg/kg q4d sc, Day 32): −20.0%; Average BW (DIO C57Bl6 mice; 6.0 mg/kg q4d sc, IP-GTT day 24): 33.0 g; Blood Glucose 120 (DIO C57Bl6 mice; 6.0 mg/kg q4d sc): 177 ± 9.3 mg/dL; Blood Glucose 15 min (DIO C57Bl6 mice; 6.0 mg/kg q4d sc): 473 ± 39.1 mg/dL; Blood Glucose 30 min (DIO C57Bl6 mice; 6.0 mg/kg q4d sc): 355 ± 23.8 mg/dL; Blood Glucose 60 min (DIO C57Bl6 mice; 6.0 mg/kg q4d sc): 324 ± 19.1 mg/dL; Blood Glucose 90 min (DIO C57Bl6 mice; 6.0 mg/kg q4d sc): 240 ± 6.7 mg/dL; Blood Glucose Fasting (DIO C57Bl6 mice; 6.0 mg/kg q4d sc): 185 ± 6.5 mg/dL; CHOLESTEROL (DIO C57Bl6 mice; 6 mg/kg q4d sc): 109 ± 2.6 mg/dL; HDL CHOLESTEROL (DIO C57Bl6 mice; 6 mg/kg q4d sc): 72 ± 1.3 mg/dL; HDL/LDL ratio (DIO C57Bl6 mice; 6 mg/kg q4d sc): 9.0 ± 0.5; LDL (DIO C57Bl6 mice; 6 mg/kg q4d sc): 8 ± 0.5 mg/dL; TRIGLYCERIDE (DIO C57Bl6 mice; 6 mg/kg q4d sc): 81 ± 13.6 mg/dL; Epid. Fat (DIO C57Bl6 mice; 6.0 mg/kg q4d sc): 1.11 g; Fat % BW (DIO C57Bl6 mice; 6.0 mg/kg q4d sc): 10% and 9.7%; Ing. Fat (DIO C57Bl6 mice; 6.0 mg/kg q4d sc): 1.54 g; Liver (DIO C57Bl6 mice; 6.0 mg/kg q4d sc): 1.30 g; RP Fat (DIO C57Bl6 mice; 6.0 mg/kg q4d sc): 0.60 g; Total Fat (DIO C57Bl6 mice; 6.0 mg/kg q4d sc): 3.25 g; avg B.W. (DIO C57Bl6 mice; 6.0 mg/kg q4d sc): 33.60 g; Blood glucose (DIO C57Bl6 mice; 6.0 mg/kg q4d sc): 227 mg/dL; evidence of neurotoxicity (ataxis, disorientation, tremor or convulsion) (Sprague Dawley male rats): did not exhibit any evidence of neurotoxicity; Glucose, ipGTT 0 min (DIO C57Bl/6 mice; 2 mg/kg q4d): 182.8 mg/dL; Glucose, ipGTT 15 min (DIO C57Bl/6 mice; 2 mg/kg q4d): 488.6 mg/dL; Insulin, ipGTT 0 min (DIO C57Bl/6 mice; 2 mg/kg q4d): 104.6 uU/ml; Insulin, ipGTT 15 min (DIO C57Bl/6 mice; 2 mg/kg q4d): 133.4 uU/ml; Glucose, ipGTT 0 min (DIO C57Bl/6 mice; 6 mg/kg q4d): 179.8 mg/dL; Glucose, ipGTT 15 min (DIO C57Bl/6 mice; 6 mg/kg q4d): 557.3 mg/dL; Insulin, ipGTT 0 min (DIO C57Bl/6 mice; 6 mg/kg q4d): 53.2 uU/ml; Insulin, ipGTT 15 min (DIO C57Bl/6 mice; 6 mg/kg q4d): 64.3 uU/ml; Glucose, ipGTT 0 min (DIO C57Bl/6 mice; 12 mg/kg Q8D): 204.0 mg/dL; Glucose, ipGTT 15 min (DIO C57Bl/6 mice; 12 mg/kg Q8D): 553.1 mg/dL; Insulin, ipGTT 0 min (DIO C57Bl/6 mice; 12 mg/kg Q8D): 75.9 uU/ml; Insulin, ipGTT 15 min (DIO C57Bl/6 mice; 12 mg/kg Q8D): 96.0 uU/ml; fasting insulin (DIO C57Bl/6 mice; all Compound 16 groups, FIG. 22): fasting insulin was also reduced
